# Read-outs that look alike come from different tables or passages of the source.
# Columns and labels:
# eosinophils [1] = test system: eosinophils
# Procedure: (§1) The phase 3 clinical trial was a double-blind study of dexpramipexole in ALS patients randomized 1:1 to placebo or dexpramipexole 300 mg daily treatment. Hematology parameters were collected as part of routine safety monitoring. Eosinophil and basophil counts were retrospectively analyzed by visit.
# Eosinophil levels were summarized over available time points and analyzed by ANOVA testing the effect of treatment vs. placebo on mean changes in serum eosinophil counts from baseline. Subjects with baseline eosinophils from 0 to 0.02×10^9/L (constituting less than 2% of all subjects analyzed) were censored from the primary analysis because of the inherent limitation to observe a decline from baseline.
# Statistical analysis of the change from baseline was performed at month 6 to remove the effect of study dropouts in later months.
# [2] = exposures up to 18 months
# eosinophils [3] = test system: eosinophils; remark: listed apart in the source
# Procedure: In a 39-week repeat-dose toxicology study, minipigs were dosed at 0, 7.5, 25, and 75 mg/kg dexpramipexole by daily oral gavage through Study Day 45 and at 0, 7.5, 25, and 50 mg/kg dexpramipexole from Study Day 46 to study completion.
# eosinophils [4] = conditions: for decline in mean serum eosinophils from baseline to week 12: 12 weeks, Part 1; for mean eosinophils at week 16 recovered to % of baseline levels: after one-month washout
# Procedure: The Phase 2 trial was a two-part, double-blind study that evaluated the safety, tolerability, and clinical effects of dexpramipexole in ALS patients.
# In Part 1, subjects were randomized to placebo (n=27), 50 mg/day (n=23), 150 mg/day (n=26), or 300 mg/day dexpramipexole (n=26) for 12 weeks.
# bone marrow cells = conditions: 30 mg/kg or 100 mg/kg daily gavage, 70 days, vs vehicle control
# Procedure: The study consisted of 3 groups of BALB/cByJ mice (10 mice per group). Mice received daily gavage treatments of either 30 mg/kg, 100 mg/kg of dexpramipexole or vehicle control for 70 days. Bone marrow was processed into single cell suspensions and cells were stained with fluorescent conjugate antibodies to analyze the developmental stages of cells by flow cytometry. […] The columns depict the mean for each group and the error bar indicates the standard error of the mean.
# [5] = test system: myeloid and lymphoid cell types, red blood cells, platelets; conditions: 300 mg daily, month 6
# Procedure: Hematological parameters were measured in a Phase 3 study of dexpramipexole in ALS. Because of the high rate of mortality among ALS patients, including subjects in the Phase 3 trial, hematology parameters obtained at the month 6 visit were chosen for analysis to remove the effect of study dropouts in later months.
# basophils = conditions: 300 mg daily
# Procedure: as §1
# Changes in basophil counts were also analyzed in the Phase 3 trial.
structure (smiles),measurement,setting,value
"CCCN[C@@H]1CCc2nc(N)sc2C1 [dexpramipexole, (6R)-2-amino-4,5,6,7-tetrahydro-6-(propylamino) benzothiazole]",subjects experiencing a 50% or greater decline in eosinophil count,"eosinophils [1]; 300 mg daily, after 6 months of treatment",77.5 % of subjects
same,peripheral blood eosinophil count,"eosinophils [1]; 300 mg daily, after 8-12 weeks of treatment",profound decrease
same,mean eosinophil counts reduced from baseline,"eosinophils [1]; 300 mg daily, month 6",68.4%
same,decrease in eosinophil count in subjects with higher eosinophil counts (>0.25×10^9/L),"eosinophils [1]; 300 mg daily, n=42, after 6 months of treatment",75%
same,time at which eosinophil-lowering effect reached plateau,"eosinophils [1]; 300 mg daily, persisted through month 12",~4 month
same,eosinophil counts in subject with highest baseline eosinophil count,"eosinophils [1]; one Phase 3 subject, persisted through month 12",decrease in eosinophil counts
same,tolerability in humans,[2],well-tolerated
same,safety assessment of eosinophil differences,"eosinophils [3]; minipig, in vivo",not considered adverse
same,reduction in eosinophils,"eosinophils [3]; minipigs, 7.5, 25 and 75/50 mg/kg daily oral gavage, 39 weeks",dose- and time-dependent reduction
same,decline in mean serum eosinophils from baseline to week 12,eosinophils [4]; 50 mg/day,18.2%
same,mean eosinophils at week 16 recovered to % of baseline levels,eosinophils [4]; 150 mg/day group,47 % of baseline levels
same,decline in mean serum eosinophils from baseline to week 12,eosinophils [4]; 150 mg/day,69.9%
same,mean eosinophils at week 16 recovered to % of baseline levels,eosinophils [4]; 300 mg/day group,73 % of baseline levels
same,decline in mean serum eosinophils from baseline to week 12,eosinophils [4]; 300 mg/day,42.9%
same,decrease in eosinophil counts,"eosinophils [4]; ALS subjects receiving dexpramipexole, Phase 2",dose- and time-dependent decrease
same,decline in eosinophils from week 16 to week 40,"eosinophils [4]; Part 2, 25 mg twice daily",17.6%
same,decline in eosinophils from week 16 to week 40,"eosinophils [4]; Part 2, 150 mg twice daily",78.9%
same,eosinophil counts in one subject with hypereosinophilia at Part 2 baseline,"eosinophils [4]; one Phase 2 subject, persisted through month 12",decrease in eosinophil counts
same,"Siglec-F^lo IL5Rα^hi positive cells (developing B cells, basophils and other cell populations) in bone marrow",bone marrow cells,lowered
same,number of Scal^+ c-Kit^+ lineage negative cells (multipotent hematopoietic stem cells) in bone marrow,bone marrow cells,lowered
same,"all myeloid and lymphoid cell types measured, change from baseline",[5],statistically significant mean reductions
same,time at which basophil count decline reached plateau,basophils; remained reduced through month 12,~4 month
same,mean basophil counts reduced from baseline,basophils; six month analysis,45.5%

# From patent US10456381B2, “Compositions and methods for treating plasma cell disorders and B-cell prolymphocytic disorders” (Knopp Biosciences LLC, priority 2013, dated 2019)
